Among the data in patent US8394969B2, “Cyclic benzimidazole derivatives useful as anti-diabetic agents” (Merck Sharp & Dohme Corp., priority 2008, dated 2013) are Emax and EC50 values, retold here.

For the assay, the target named is recombinant human AMPK complex 1 (containing α1β1γ1) (Homo sapiens, UniProt Q13131+Q9Y478). Kind of assay: […] (in vitro AMPK activation assay). To be noted: recombinant human AMPK complex 1 (α1β1γ1); for Emax: basal activity subtracted, read-out: % Maximum AMP Activation of human AMPK Complex 1; for EC50: read-out: EC50. The format is biochemical.

Some results are limits rather than exact numbers.

Chain of recombinant human AMPK complex 1 (containing α1β1γ1) (Q13131 whole entry): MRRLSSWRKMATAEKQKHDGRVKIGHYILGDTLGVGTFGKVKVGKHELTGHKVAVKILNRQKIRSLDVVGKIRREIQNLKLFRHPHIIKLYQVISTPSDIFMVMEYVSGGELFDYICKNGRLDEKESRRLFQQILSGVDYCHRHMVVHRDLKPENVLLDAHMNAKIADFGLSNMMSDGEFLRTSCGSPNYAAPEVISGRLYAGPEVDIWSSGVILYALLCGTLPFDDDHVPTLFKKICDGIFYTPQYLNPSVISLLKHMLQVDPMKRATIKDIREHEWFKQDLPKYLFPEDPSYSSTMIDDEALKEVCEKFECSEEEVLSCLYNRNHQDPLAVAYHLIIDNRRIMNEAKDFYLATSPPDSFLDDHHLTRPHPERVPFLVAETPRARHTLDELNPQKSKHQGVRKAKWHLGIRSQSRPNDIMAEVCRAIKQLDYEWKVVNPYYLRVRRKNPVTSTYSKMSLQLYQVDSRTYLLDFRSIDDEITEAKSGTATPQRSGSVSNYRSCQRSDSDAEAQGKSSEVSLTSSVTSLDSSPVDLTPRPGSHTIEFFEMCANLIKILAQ
Chain of recombinant human AMPK complex 1 (containing α1β1γ1) (Q9Y478 whole entry): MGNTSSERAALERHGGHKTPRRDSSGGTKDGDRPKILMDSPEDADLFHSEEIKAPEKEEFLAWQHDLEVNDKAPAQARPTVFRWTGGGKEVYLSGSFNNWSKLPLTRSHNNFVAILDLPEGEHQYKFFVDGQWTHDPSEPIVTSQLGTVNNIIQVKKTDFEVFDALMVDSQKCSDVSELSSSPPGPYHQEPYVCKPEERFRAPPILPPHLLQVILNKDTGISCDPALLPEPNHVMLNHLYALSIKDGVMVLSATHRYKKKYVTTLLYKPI
Chain of recombinant human AMPK complex 1 (containing α1β1γ1) (P54619 whole entry partner): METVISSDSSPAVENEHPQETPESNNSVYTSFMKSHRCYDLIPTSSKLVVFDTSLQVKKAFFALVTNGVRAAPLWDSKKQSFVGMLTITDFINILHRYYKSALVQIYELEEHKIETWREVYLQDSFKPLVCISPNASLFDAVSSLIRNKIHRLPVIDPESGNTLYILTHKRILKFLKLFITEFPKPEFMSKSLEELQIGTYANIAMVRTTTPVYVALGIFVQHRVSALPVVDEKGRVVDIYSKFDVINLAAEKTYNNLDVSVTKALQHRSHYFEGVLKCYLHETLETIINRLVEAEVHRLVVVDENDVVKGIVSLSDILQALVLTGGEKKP

Consider `Cc1ccc(Oc2nc3cc(-c4ccc(C(N)=O)cc4)c(Cl)cc3[nH]2)cc1C(=O)O` [Example 242, 5-[5-(4-Carbamoyl-phenyl)-6-chloro-1H-benzoimidazol-2-yloxy]-2-methyl-benzoic acid], for which the Emax was > 80%.

On to `COc1ccc2cc(-c3cc4nc(Oc5cc(C)c(C)c(C(=O)O)c5)[nH]c4cc3Cl)ccc2c1` [Example 310, 5-[6-Chloro-5-(6-methoxy-naphthalen-2-yl)-1H-benzoimidazol-2-yloxy]-2,3-dimethyl-benzoic acid], for which the Emax was > 80%.

Turning to `Cc1cc(Oc2nc3cc(-c4ccc5c(c4)OCCN5C)c(Cl)cc3[nH]2)cc(C(=O)O)c1C` [Example 312, 5-[6-Chloro-5-(4-methyl-3,4-dihydro-2H-benzo[1,4]oxazin-7-yl)-1H-benzoimidazol-2-yloxy]-2,3-dimethyl-benzoic acid], the Emax is > 80%.

For the molecule `Cc1ccc(Oc2nc3cc(-c4ccc(-c5cccc(Cl)c5)cc4)c(Cl)cc3[nH]2)cc1C(=O)O` [Example 186, 5-{[6-chloro-5-(3′-chlorobiphenyl-4-yl)-1H-benzimidazol-2-yl]oxy}-2-methylbenzoic acid], the Emax was > 80%.

Regarding `O=C(O)C(O)c1ccc(Oc2nc3cc(-c4ccc(-c5ccccc5)cc4)c(Cl)cc3[nH]2)cc1` (centres unmarked) [Example 20, [4-(5-Biphenyl-4-yl-6-chloro-1H-benzoimidazol-2-yloxy)-phenyl]-hydroxy-acetic acid], the Emax was > 80%.

Turning to `O=C(O)c1ccnc(Oc2nc3cc(-c4ccc(-c5ccccc5)cc4)c(Cl)cc3[nH]2)c1` [Example 215, 2-(5-Biphenyl-4-yl-6-chloro-1H-benzoimidazol-2-yloxy)-isonicotinic acid], the Emax was > 80%.

`NS(=O)(=O)c1cccc(Oc2nc3cc(-c4ccc(-c5ccccc5)cc4)c(Cl)cc3[nH]2)c1` [Example 220, 3-(5-Biphenyl-4-yl-6-chloro-1H-benzoimidazol-2-yloxy)-benzenesulfonamide]: the Emax is > 80%.

`NC(=O)Cc1cccc(Oc2nc3cc(C#Cc4ccccc4)c(Cl)cc3[nH]2)c1` [Example 23, 2-[3-(6-Chloro-5-phenylethynyl-1H-benzoimidazol-2-yloxy)-phenyl]-acetamide]: the Emax is > 80%.

With `Cc1ccc(Oc2nc3cc(-c4ccc(-c5ccccn5)cc4)c(Cl)cc3[nH]2)cc1C(=O)O` [Example 166, 5-[6-Chloro-5-(4-pyridin-2-yl-phenyl)-1H-benzoimidazol-2-yloxy]-2-methyl-benzoic acid], the Emax was > 80%.

Consider `COc1ccc(C#Cc2cc3nc(Oc4ccc(C)c(C(=O)O)c4)[nH]c3cc2Cl)cc1` [Example 121, 5-[6-Chloro-5-(4-methoxy-phenylethynyl)-1H-benzoimidazol-2-yloxy]-2-methyl-benzoic acid], for which the Emax is > 80%.

`CCc1ccc(Oc2nc3cc(-c4ccc(-c5ccccc5)cc4)c(Cl)cc3[nH]2)cc1C(=O)O` [Example 212, 5-(5-Biphenyl-4-yl-6-chloro-1H-benzoimidazol-2-yloxy)-2-ethyl-benzoic acid]: the Emax is > 80%.

Turning to `COc1ccc(-c2ccc(-c3cc4nc(Oc5ccc(C)c(C(=O)O)c5)[nH]c4cc3Cl)cc2)cc1` [Example 172, 5-[6-Chloro-5-(4′-methoxy-biphenyl-4-yl)-1H-benzoimidazol-2-yloxy]-2-methyl-benzoic acid], the Emax is > 80%.

`N#Cc1ccc(Oc2nc3cc(-c4ccc(-c5ccccc5)cc4)c(Cl)cc3[nH]2)cc1C#N` [Example 101, 4-(5-Biphenyl-4-yl-6-chloro-1H-benzoimidazol-2-yloxy)-phthalonitrile]: the Emax is > 80%.

As for `Cc1ccc(Oc2nc3cc(-c4ccc5c(ccn5CC5CC5)c4)c(Cl)cc3[nH]2)cc1C(=O)O` [Example 252, 5-[6-Chloro-5-(1-cyclopropylmethyl-1H-indol-5-yl)-1H-benzoimidazol-2-yloxy]-2-methyl-benzoic acid], the Emax was > 80%.

Regarding `COC(=O)c1cc(Oc2nc3cc(-c4ccc(-c5ccccc5Cl)cc4)c(Cl)cc3[nH]2)ccc1C` [Example 196, Methyl 5-{[6-chloro-5-(2′-chlorobiphenyl-4-yl)-1H-benzimidazol-2-yl]oxy}-2-methylbenzoate], the Emax was > 80%.

Take `Cc1ccc(Oc2nc3cc(-c4ccc(-c5ccc(=O)n(C)c5)cc4)c(Cl)cc3[nH]2)cc1C(=O)O` [Example 68, 5-({6-chloro-5-[4-(1-methyl-6-oxo-1,6-dihydropyridin-3-yl)phenyl]-1H-benzimidazol-2-yl}oxy)-2-methylbenzoic acid]: the concentration giving a half-maximal response (EC50) amounted to 7 nM.

For the molecule `Cc1ccc(Oc2nc3cc(C#Cc4ccc(C(F)(F)F)cc4)c(Cl)cc3[nH]2)cc1C(=O)O` [Example 93, 5-[6-Chloro-5-(4-trifluoromethyl-phenylethynyl)-1H-benzoimidazol-2-yloxy]-2-methyl benzoic acid], the Emax was > 80%.

Turning to `Cc1ccc(Oc2nc3cc(C#Cc4cccnc4)c(Cl)cc3[nH]2)cc1C(=O)O` [Example 131, 5-(6-Chloro-5-pyridin-3-ylethynyl-1H-benzoimidazol-2-yloxy)-2-methyl-benzoic acid], the Emax was > 80%.

Turning to `COc1cccc(-c2ccc(-c3cc4nc(Oc5ccc(C)c(C(=O)O)c5)[nH]c4cc3Cl)cc2)c1` [Example 187, 5-{[6-chloro-5-(3′-methoxybiphenyl-4-yl)-1H-benzimidazol-2-yl]oxy}-2-methylbenzoic acid], the Emax is > 80%.

For the molecule `Cc1ccc(Oc2nc3cc(-c4ccc(-c5ccccc5)s4)c(Cl)cc3[nH]2)cc1C(=O)O` [Example 359, 5-{6-Chloro-5-(5-phenyl-thiophen-2-yl)-1H-benzoimidazol-2-yloxy}-2-methyl-benzoic acid], the Emax was > 80%.

As for `Cc1ccc(Oc2nc3cc(-c4ccc5c(C)noc5c4)c(Cl)cc3[nH]2)cc1C(=O)O` [Example 265, 5-[6-chloro-5-(3-methyl-benzo[d]isoxazol-6-yl)-1H-benzoimidazol-2-yloxy]-2-methyl-benzoic acid], the Emax is > 80%.

For `Cc1ccc(Oc2nc3cc(-c4ccc5c(ccn5C)c4)c(F)cc3[nH]2)cc1C(=O)O` [Example 249, 5-[6-Fluoro-5-(1-methyl-1H-indol-5-yl)-1H-benzoimidazol-2-yloxy]-2-methyl-benzoic acid], the Emax was > 80%.

In the case of `Cc1ccc(Oc2nc3cc(-c4ccc(-c5cn[nH]c5)cc4)c(Cl)cc3[nH]2)cc1C(=O)O` [Example 202, 5-({6-chloro-5-[4-(1H-pyrazol-4-yl)phenyl]-1H-benzimidazol-2-yl}oxy)-2-methylbenzoic acid], the Emax is > 80%.

`COC(=O)Cn1nnc(-c2cccc(Oc3nc4cc(-c5ccc(-c6ccccc6)cc5)c(Cl)cc4[nH]3)c2)n1` [Example 41, {5-[3-(5-Biphenyl-4-yl-6-chloro-1H-benzoimidazol-2-yloxy)-phenyl]-tetrazol-2-yl}-acetic acid methyl ester]: the Emax was > 80%.

Take `Cc1ccc(Oc2nc3cc(-c4ccc5c(c4)c4c(n5C)CCC4)c(Cl)cc3[nH]2)cc1C(=O)O` [Example 281, 5-[6-Chloro-5-(4-methyl-1,2,3,4-tetrahydro-cyclopenta[b]indol-7-yl)-1H-benzoimidazol-2-yloxy]-2-methyl-benzoic acid]: the Emax is > 80%.

On to `Cc1ccc(Oc2nc3cc(-c4ccc5[nH]ncc5c4)c(Cl)cc3[nH]2)cc1C(=O)O` [Example 153, 5-[6-Chloro-5-(1H-indazol-5-yl)-1H-benzoimidazol-2-yloxy]-2-methyl-benzoic acid], for which the Emax was > 80%.

As for `COC(=O)c1cc(Oc2nc3cc(C#Cc4ccccc4)c(Cl)cc3[nH]2)cc(C(=O)OC)c1` [Example 49, 5-(6-Chloro-5-phenylethynyl-1H-benzoimidazol-2-yloxy)-isophthalic acid dimethyl ester], the Emax was > 80%.

`COC(=O)c1cc(Oc2nc3cc(C#Cc4cccc(OC)c4)c(Cl)cc3[nH]2)ccc1C` [Example 109, 5-[6-Chloro-5-(3-methoxy-phenylethynyl)-1H-benzoimidazol-2-yloxy]-2-methyl-benzoic acid methyl ester]: the Emax is > 80%.

On to `Cc1ccc(Oc2nc3cc(-c4ccc(-c5cccc(F)c5)cc4)c(Cl)cc3[nH]2)cc1C(=O)O` [Example 185, 5-{[6-chloro-5-(3′-fluorobiphenyl-4-yl)-1H-benzimidazol-2-yl]oxy}-2-methylbenzoic acid], for which the Emax was > 80%.

As for `O=C(O)c1cc(Oc2nc3cc(-c4ccccc4)c(Cl)cc3[nH]2)ccc1Cl` [Example 61, 2-Chloro-5-(6-chloro-5-phenyl-1H-benzoimidazol-2-yloxy)-benzoic acid], the Emax was > 80%.

As to `Cc1ccc(Oc2nc3cc(-c4ccc(N5CCNCC5)nc4)c(Cl)cc3[nH]2)cc1C(=O)O` [Example 174, 5-[6-Chloro-5-(6-piperazin-1-yl-pyridin-3-yl)-1H-benzoimidazol-2-yloxy]-2-methyl-benzoic acid], the Emax is > 80%.

As for `Cc1ccc(Oc2nc3cc(-c4ccc(C(=O)N5CCC(O)CC5)cc4)c(Cl)cc3[nH]2)cc1C(=O)O` [Example 236, 5-{6-Chloro-5-[4-(4-hydroxy-piperidine-1-carbonyl)-phenyl]-1H-benzoimidazol-2-yloxy}-2-methyl-benzoic acid], the EC50 was 10 nM.

As to `Cc1ccc(Oc2nc3cc(-c4ccc(C#N)cc4)c(Cl)cc3[nH]2)cc1C(=O)O` [Example 180, 5-[6-Chloro-5-(4-cyano-phenyl)-1H-benzoimidazol-2-yloxy]-2-methyl-benzoic acid], the Emax was > 80%.

`Cc1ccc(Oc2nc3cc(C#Cc4cccc(F)c4)c(Cl)cc3[nH]2)cc1C(=O)O` [Example 111, 5-[6-Chloro-5-(3-fluoro-phenylethynyl)-1H-benzoimidazol-2-yloxy]-2-methyl-benzoic acid]: the Emax was > 80%.

On to `O=C(O)c1ccc(Oc2nc3cc(-c4ccc(-c5ccccc5)cc4)c(Cl)cc3[nH]2)cc1O` [Example 32, 4-(5-Biphenyl-4-yl-6-chloro-1H-benzoimidazol-2-yloxy)-2-hydroxy-benzoic acid], for which the Emax is > 80%.
